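Following 48 hours of exposure in 96-well plates, responses at five concentrations were used to interpolate endpoints linearly. GI50: concentration for 50% inhibition of growth.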 Calls of active or inactive are those of the source. Rule as the data show it: active = GI50 up to about 1.1 µM and inactive = higher.
Tests used:
Experiment in all cases: DTP human tumour cell line panel, 48 h
[1] = test system: CAKI-1
[2] = test system: 786-0
[3] = test system: A498
[4] = test system: OVCAR-4
[5] = test system: SW-620
[6] = test system: CCRF-CEM
[7] = test system: OVCAR-5
[8] = test system: RXF 393
[9] = test system: COLO 205
[10] = test system: SK-OV-3
[11] = test system: UO-31
[12] = test system: EKVX
[13] = test system: MDA-MB-435
[14] = test system: SNB-19
[15] = test system: HOP-62
[16] = test system: UACC-62
[17] = test system: HCT-15
[18] = test system: Malme-3M
[19] = test system: SK-MEL-5
[20] = test system: Hs-578T

Structure (SMILES) | GI50 [1] | GI50 [2] | GI50 [3] | GI50 [4] | GI50 [5] | GI50 [6] | GI50 [7] | GI50 [8] | GI50 [9] | GI50 [10] | GI50 [11] | GI50 [12] | GI50 [13] | GI50 [14] | GI50 [15] | GI50 [16] | GI50 [17] [µM] | GI50 [18] | GI50 [19] | GI50 [20]
Cc1cc2c(O)c(c1)COCc1cc(C)cc(c1O)COCc1cc(C)cc(c1O)COC2 | > 100 µM (inactive) | 47.1 µM (inactive) | > 100 µM (inactive) | > 100 µM (inactive) | > 100 µM (inactive) | 32.1 µM (inactive) | > 100 µM (inactive) | > 100 µM (inactive) | 96.2 µM (inactive) | > 100 µM (inactive) | > 100 µM (inactive) | > 100 µM (inactive) | > 100 µM (inactive) | > 100 µM (inactive) | > 100 µM (inactive) | > 100 µM (inactive) | > 100 | > 100 µM (inactive) |  | 
N=C(N)NNC(=O)CCCCCCCC(=O)NNC(=N)N | > 100 µM (inactive) | > 100 µM (inactive) | > 100 µM (inactive) | 33.9 µM (inactive) | 10.4 µM (inactive) | > 100 µM (inactive) | > 100 µM (inactive) | > 100 µM (inactive) | 18.3 µM (inactive) | > 100 µM (inactive) | > 100 µM (inactive) | > 100 µM (inactive) |  | > 100 µM (inactive) | > 100 µM (inactive) | > 100 µM (inactive) | 17.9 | > 100 µM (inactive) | > 100 µM (inactive) | 
O=C(c1ccccc1)N1N=C(C(F)(F)F)CC1(O)C(F)(F)F (centres undefined) |  | > 100 µM (inactive) | > 100 µM (inactive) | > 100 µM (inactive) | > 100 µM (inactive) | > 100 µM (inactive) | > 100 µM (inactive) |  | > 100 µM (inactive) |  | > 100 µM (inactive) | > 100 µM (inactive) | > 100 µM (inactive) | > 100 µM (inactive) | > 100 µM (inactive) |  | > 100 | > 100 µM (inactive) |  | > 100 µM (inactive)
COc1cc(NS(=O)(=O)c2ccc(C)cc2)c2nccnc2c1 | 37.6 µM (inactive) | 36.1 µM (inactive) | 56.2 µM (inactive) | 39.6 µM (inactive) | 37.8 µM (inactive) | 10.3 µM (inactive) | 89.7 µM (inactive) | 14.3 µM (inactive) | 27 µM (inactive) | 84.9 µM (inactive) | 34.4 µM (inactive) | 39.8 µM (inactive) |  | 29.8 µM (inactive) | 33.2 µM (inactive) | 14.8 µM (inactive) | 17.7 | 37.2 µM (inactive) | 23.7 µM (inactive) | 
